We go through 4 compounds from patent US20240025903A1, “Bicyclic Compounds and Uses Thereof for the Treatment of Diseases” (Athira Pharma, Inc., priority 2020, published 2024).

Data set [1] is described as follows: In vitro stability in simulated gastric and intestinal fluids. The class given is in vitro ADME. To be noted: 37° C.; for SGF + Enz (compound remaining after 4 hours): SGF with 3.2 mg/ml pepsin; for SGF + Enz (compound remaining after 4 hours) / SIF (compound remaining after 4 hours): 5 μM; for SGF (compound remaining after 4 hours): simulated gastric fluid pH 1.2, 5 μM; for SIF (compound remaining after 4 hours): simulated intestinal fluid pH 6.8 with 10 mg/ml pancreatin. As for the experimental part: (§1) Bioavailability can be estimated by compound stability when exposed to conditions in the body. As an initial assessment of stability properties in a variety of conditions present in animals, exemplary compounds were tested for stability in a battery of simulated body compartments. Compounds were tested for stability in the following solutions: simulated gastric fluid (SGF: 34.2 mM NaCl, pH 1.2), simulated gastric fluid with the digestive enzyme pepsin (SGF+Enzyme: SGF with 3.2 mg/ml pepsin), simulated intestinal fluid with the mixture of enzymes in porcine pancreatin (SIF+Enzyme: 28.7 mM NaH2PO4, 105.7 mM NaCl, pH 6.8, 10 mg/ml pancreatin), rat plasma, and human plasma.
(§2) Test compounds were incubated at a final concentration of 5 μM in the above solutions at 37° C. with samples removed at the following time points: 0, 1, 2, and 4 hours. Reactions were stopped and prepared for quantification by addition of excess quench solution containing an internal standard (acetonitrile, 200 ng/mL bucetin). Test compound and internal standard in each sample was quantified by LC-MS/MS, and after internal normalization to bucetin, test compound concentration was expressed as a percentage of concentration at the 0-hour time point. Stability in the relevant test solution was then determined by the percent remaining at the 4-hour time point.

Data set [2] is described as follows: Turbidimetric solubility assay. The class given is physicochemical. To be noted: aqueous buffer, kinetic from dmso stock, PBS, 37° C., absorbance 620 nm.
The nature of data set [3]: In vitro stability in human plasma. The class given is in vitro ADME. The conditions noted are these: 5 μM, 37° C. On the procedure: as §1, §2
Data set [4] can be described thus: In vitro stability in rat plasma. Type of data set: in vitro ADME. The conditions noted are these: 5 μM, 37° C. On the procedure:
as §1, §2

Data set [5] can be described thus: Parallel artificial membrane permeability assay (PAMPA). The class given is in vitro ADME. To be noted: PBS, room temperature. In a few lines: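 Donor wells held compound at 200 μM in PBS (5 replicates) against PBS acceptor wells, incubated 5 h at room temperature. Donor and acceptor concentrations were read by UV against a 0–200 μM standard curve. Pe and membrane retention were calculated from the stated equations.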

Another data set has as its system MDCK cells. The experiment in a line: Cell scattering behavior assay. Type of data set: cell-based. Details: key: − indicates that the compound failed to significantly promote cell scattering behavior; + indicates maximum potency at or above 100 nM; ++ indicates maximum potency at or above 10 nM; +++ indicates maximum potency at or above 1 nM; ++++ indicates maximum potency at or above 0.1 nM. The conditions noted are these: 5 ng/mL HGF, 24 hours, normalized particle count vs HGF alone. In a few lines: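 MDCK cells starved 2 h in serum-free DMEM, then treated 24 h at 37 °C with compounds plus 5 ng/mL HGF. Cells were ethanol-fixed, WGA488-stained and imaged. Scattering was scored as particle count normalized to stained area, with activity taken as a statistical increase in normalized particle count over HGF alone.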

For the compound `CCCCN1CC2N(C(=O)c3ccc(OC(F)F)cc3)CCC(=O)N2C(C)C1=O` (centres unmarked) [Compound 17], in data set [1], the “SGF + Enz (compound remaining after 4 hours)” value is recorded as “+++ (+++ indicates 80-99% compound remaining after 4 hours)”, the “SGF (compound remaining after 4 hours)” value is reported as “+++ (+++ indicates 80-99% compound remaining after 4 hours)” and the “SIF (compound remaining after 4 hours)” value is given as “+++ (+++ indicates 80-99% compound remaining after 4 hours)”. The same compound returned a solubility at 2 h in data set [2] of more than 300 µM. For the same compound, the “Human Plasma (compound remaining after 4 hours)” value in data set [3] is “+++ (+++ indicates 80-99% compound remaining after 4 hours)”. The “Rat Plasma (compound remaining after 4 hours)” value in data set [4] is given as “++ (++ indicates 40-79% compound remaining after 4 hours)”. Also, in data set [5], the Papp at 5 h, 200 µM is more than 2 ×10⁻⁶ cm/s. Moreover, the “Potency (cell scattering)” value with MDCK cells is “−”.
`CC1C(=O)N(CCC2CCCC2)CC2N(C(=O)c3ccc(C(F)(F)F)cc3)CCC(=O)N12` (centres unmarked) [Compound 19]: in data set [1], the “SGF + Enz (compound remaining after 4 hours)” value is on record as “++ (++ indicates 40-79% compound remaining after 4 hours)”, the “SGF (compound remaining after 4 hours)” value is reported as “+++ (+++ indicates 80-99% compound remaining after 4 hours)” and the “SIF (compound remaining after 4 hours)” value is given as “+ (+ indicates 20-39% compound remaining after 4 hours)”. The compound also returned a solubility at 2 h in data set [2] of more than 300 µM. For the same compound, in data set [3], the “Human Plasma (compound remaining after 4 hours)” value is reported as “+++ (+++ indicates 80-99% compound remaining after 4 hours)”. The “Rat Plasma (compound remaining after 4 hours)” value in data set [4] is on record as “+++ (+++ indicates 80-99% compound remaining after 4 hours)”. This compound also came in with a Papp at 5 h, 200 µM in data set [5] of less than 2 ×10⁻⁶ cm/s. Moreover, the “Potency (cell scattering)” value in the data set on MDCK cells is on record as “+++ (+++ indicates maximum potency at or above 1 nM)”.
Turning to `CC1C(=O)N(CCC2CCC2)CC2N(C(=O)c3ccc(C(F)(F)F)cc3)CCC(=O)N12` (centres unmarked) [Compound 20], in data set [1], the “SGF + Enz (compound remaining after 4 hours)” value is “+++ (+++ indicates 80-99% compound remaining after 4 hours)”, the “SGF (compound remaining after 4 hours)” value is given as “+++ (+++ indicates 80-99% compound remaining after 4 hours)” and the “SIF (compound remaining after 4 hours)” value is listed as “+++ (+++ indicates 80-99% compound remaining after 4 hours)”. The compound further yielded a solubility at 2 h in data set [2] of more than 300 µM. Also, the “Human Plasma (compound remaining after 4 hours)” value in data set [3] is listed as “+++ (+++ indicates 80-99% compound remaining after 4 hours)”. The “Rat Plasma (compound remaining after 4 hours)” value in data set [4] is given as “++ (++ indicates 40-79% compound remaining after 4 hours)”. The same compound gave a Papp at 5 h, 200 µM in data set [5] of less than 2 ×10⁻⁶ cm/s. The “Potency (cell scattering)” value in the data set on MDCK cells is “+++ (+++ indicates maximum potency at or above 1 nM)”.
As for `C=CCCN1CC2N(C(=O)c3ccc(C(F)(F)F)cc3)CCC(=O)N2C(C)C1=O` (centres unmarked) [Compound 22], in data set [1], the “SGF + Enz (compound remaining after 4 hours)” value is “+++ (+++ indicates 80-99% compound remaining after 4 hours)”, the “SGF (compound remaining after 4 hours)” value was “+++ (+++ indicates 80-99% compound remaining after 4 hours)” and the “SIF (compound remaining after 4 hours)” value was “+++ (+++ indicates 80-99% compound remaining after 4 hours)”. The compound further registered a solubility at 2 h in data set [2] of more than 300 µM. Besides, the “Human Plasma (compound remaining after 4 hours)” value in data set [3] was “+++ (+++ indicates 80-99% compound remaining after 4 hours)”. Besides, in data set [4], the “Rat Plasma (compound remaining after 4 hours)” value is given as “+++ (+++ indicates 80-99% compound remaining after 4 hours)”. Moreover, the Papp at 5 h, 200 µM in data set [5] was less than 2 ×10⁻⁶ cm/s. Moreover, in the data set with MDCK cells, the “Potency (cell scattering)” value was “++ (++ indicates maximum potency at or above 10 nM)”.
